We go through 19 compounds from patent EP2737897A2, “Anti-inflammatory botanical products for the treatment of metabolic syndrome and diabetes” (Metaproteomics, LLC, priority 2005, dated 2007).

The test system of one data set is PGE2 synthesis. In words: cells. The format is cell-based, murine. As to conditions: for IC50: Mus musculus.
Data set [1] concerns IL-6 secretion from insulin-resistant 3T3-L1 adipocytes. In words: IL-6 secretion from insulin-resistant 3T3-L1 adipocytes. As to conditions: Mus musculus. The format is cell-based, murine.
In data set [2] the test system is adiponectin secretion from insulin-resistant 3T3-L1 adipocytes. The experiment in a line: cells. Conditions: Mus musculus.
Data set [3] relates to adiponectin secretion in LPS/3T3-L1 adipocytes. In words: Adiponectin secretion in the lipopolysaccharide/3T3-L1 adipocyte model (Example 26). Conditions: 100 ng LPS/ml; for % Stimulation (maximum, adiponectin secretion): NS = not significantly different from the LPS control.
Data set [4] relates to adiponectin secretion from TNFα-treated 3T3-L1 adipocytes. In words: Adiponectin secretion from TNFα-treated 3T3-L1 adipocytes. As to conditions: 10 ng TNFα/ml (Table 9).
Data set [5] has as its system interleukin-6 secretion from TNFα-treated 3T3-L1 adipocytes. In words: Interleukin-6 secretion from TNFα-treated 3T3-L1 adipocytes. The format is cell-based, murine. Conditions: Mus musculus, 3T3-L1, read-out: IL-6 Index.
For data set [6], the system named is IL-6 secretion in LPS/3T3-L1 adipocytes. The experiment in a line: IL-6 secretion in the lipopolysaccharide/3T3-L1 adipocyte model (Example 26). The format is cell-based, murine. As to conditions: 100 ng LPS/ml.
Data set [7] concerns resistin secretion from insulin-resistant 3T3-L1 adipocytes. The experiment in a line: cells. Conditions: Mus musculus, 3T3-L1, read-out: Resistin Index.
Protocol: Resistin Assay - The amount of resistin secreted into the medium was quantified using the Quantikine® Mouse Resistin Immunoassay kit with no modifications (R&D Systems, Minneapolis, MN). […] All supernatant media samples were diluted 1:20 with dilution media supplied by the manufacturer before assay.
Statistical Calculations and Interpretation - All assays were preformed in duplicate. […] Differences among the doses were determined using the Student's t-test without correction for multiple comparisons; the nominal five percent probability of a type I error (one-tail) was selected.
The subject of data set [8] is adiponectin secretion from insulin-resistant 3T3-L1 adipocytes.
The subject of the next data set is NF-kBp65. In words: NF-kBp65 nuclear translocation in TNFα-treated D40 3T3-L1 adipocytes, TransAM ELISA (Example 32). Conditions: 2.5 and 5.0 µg/ml; three or 24 hours following TNFα. The format is cell-based, murine. How it is done:
ELISA - 3T3-L1 adipocytes were maintained in growth media for 40 days following differentiation. Nuclear NF-kBp65 was determined using the TransAM™ NF-kB kit from Active Motif (Carlsbad, CA) was used with no modifications. […] Protein assay - Nuclear protein was quantified using the Active Motif Fluorescent Protein Quantificantion Kit. Statistical Analysis - Comparisons were performed using a one-tailed Student's t-test. The probability of a type I error was set at the nominal five percent level.
(In general: An ELISA detects its analyte on a solid surface through an enzyme-linked reagent.)

In a further data set the test system is NF-κB. In words: NF-κB DNA binding of nuclear extracts of LPS-stimulated RAW 264.7 cells, TransAM NF-κB kit (Example 9). The format is cell-based, murine. As to conditions: MgRIAA 55 and 14 µg/ml, parthenolide 80 µM, LY294002 25 µM; LPS 1 µg/ml 4 h.
The test system of a further data set is COX-2 protein expression. The experiment in a line: Western blot of COX-2 protein expression in LPS-stimulated RAW 264.7 cells (Example 8). The format is cell-based, murine. Conditions: 20 hours stimulation with LPS; compared to DMSO solvent control. For orientation: Immunoblotting shows a protein as a band on a membrane.
The next data set has as its system 3T3-L1 adipocytes. In words: Lipogenesis in 3T3-L1 adipocytes, Oil Red O or BODIPY staining. The format is cell-based, murine.
Where [9] appears, read: RAW264.7, read-out: Relative IC50.
Where [10] appears, read: 3T3-L1, read-out: Adiponectin Index.

Values after ≈ are worked out from the molar mass of the structure shown. Read-outs that look alike come from different tables or passages of the source. Marks after values point to notes of the source that are not given here.

`c1cc2c(cc1[C@H]1OC[C@H]3[C@@H]1CO[C@@H]3c1ccc3c(c1)OCO3)OCO2` [Sesamin]: the IC50 in the data set with PGE2 synthesis (RAW264.7) and in the data set on PGE2 synthesis (setting [9]) was above 12 µg/mL throughout.

Consider `Cc1c(C)c2c(c(C)c1O)CCC(C)(COc1ccc(CC3SC(=O)NC3=O)cc1)O2` (stereo not drawn) [Troglitazone], for which, in data set [1] (3T3-L1, read-out: IL-6 Index), the activity at 0.625 µg/mL was 100% and the activity at 5 µg/mL is 131%. Further, the EC50 in data set [2] (3T3-L1, read-out: Test Material at Half Maximal Secretion, estimated from the slope of Hofstee plots) is 0.085 µg/mL (≈ 0.193 µM). Moreover, in [3], the “Concentration (of maximum stimulation of adiponectin secretion)” value was 0.625 µg/mL and the “% Stimulation (maximum, adiponectin secretion)” value (“% Stimulation” below) amounted to 15%. For the same compound, in data set [4], the “Concentration (of maximum adiponectin secretion)” value was determined as 0.625 µg/mL. Also, the activity at 1 µg/mL in [5] came out at 66%. Further, in [6], the “% Inhibition (maximum, IL-6 secretion)” value was 69* % and the “Concentration (dose providing the maximum inhibition of IL-6 secretion)” value is 10.0 µg/mL. Also, in [7], the activity at 0.625 µg/mL was determined as 89% and the activity at 5 µg/mL was found to be 143%. For the same compound, the “concentration at which maximal adiponectin secretion was observed” value in [8] (of the four doses tested) worked out at 2.5 µg/mL.

`CCc1ccc(CCOc2ccc(CC3SC(=O)NC3=O)cc2)nc1` (stereo not drawn) [Pioglitazone]: in data set [3], the “% Stimulation” value came to 12%. Besides, the “amount of nuclear NF-kBp65” value in the data set on NF-kBp65 is listed as “did not inhibit”. Moreover, the “% Inhibition (maximum, IL-6 secretion)” value in data set [6] is 63* %.

On to `C=C1C(=O)O[C@@H]2[C@H]3O[C@]3(C)CC/C=C(\C)CC[C@@H]12` [Parthenolide], for which, in the data set with NF-κB, the “NF-κB DNA binding” value is “significant reduction”. Further, the “reduction in COX-2 protein expression” value with COX-2 protein expression amounted to 22.5%.

For the compound `CC(C)CCC1=C(O)C(CCC(C)C)(CCC(C)C)C(=O)C(C(=O)C(C)C)=C1O` [Hexahydrocolupulone (HHCL), Hexahydrocolupulone], the activity at 6.25 µg/mL in data set [1] (3T3-L1, 6.25 µg/ml, indexed to insulin only control, read-out: IL-6 Index) was 100%. The activity at 25 µg/mL in [1] (3T3-L1, 25.0 µg/ml, indexed to insulin only control, read-out: IL-6 Index) amounted to 119%. Besides, in [1] (3T3-L1, 50.0 µg/ml, indexed to insulin only control, read-out: IL-6 Index), the activity at 50 µg/mL is 277%. Moreover, in data set [2] (setting [10]), the fold induction at 6.25 µg/mL was 1.05, the fold induction at 25 µg/mL stood at 1.62 and the fold induction at 50 µg/mL was determined as 1.65. Further, the maximal fold induction in data set [2] (3T3-L1, read-out: Maximum Adiponectin Secretion) turned out to be 1.83. Also, the EC50 in [2] (3T3-L1, read-out: Test Material at Half Maximal Secretion) came to 3.2 µg/mL. In addition, in [8] (3t3-l1 adipocytes), the “Adiponectin Index” value is 1.71#. Besides, the “adipogenic response (lipid content relative to solvent control)” value in the data set with 3T3-L1 adipocytes (hops compounds 10, 5, 4 or 2 µg/ml, spent hops 50 µg/ml, positive controls indomethacin 5.0 and troglitazone […]) is “failed to elicit a lipogenic response greater than the solvent controls”.

Consider `C[C@@H]1O[C@@H](OC[C@H]2O[C@@H](Oc3c(-c4ccc(O)c(O)c4)oc4cc(O)cc(O)c4c3=O)[C@H](O)[C@@H](O)[C@@H]2O)[C@H](O)[C@H](O)[C@H]1O` [Rutin], for which the concentration for half-maximal inhibition (IC50) in the data set on PGE2 synthesis (RAW264.7) and in the data set with PGE2 synthesis (setting [9]) was above 12 µg/mL throughout.

Turning to `O=c1c(O)c(-c2cc(O)c(O)c(O)c2)oc2cc(O)cc(O)c12` [Myricetin], the IC50 in the data set on PGE2 synthesis (RAW264.7) and in the data set with PGE2 synthesis (setting [9]) was above 12 µg/mL each time.

For `CC(=O)Oc1ccccc1C(=O)O` [Aspirin], in data set [3], the “Concentration (of maximum stimulation of adiponectin secretion)” value was 113 µg/mL and the “% Stimulation” value is given as “failed to induce adiponectin secretion”. For the same compound, the “Concentration (dose providing the maximum inhibition of IL-6 secretion)” value in [6] was 25.0 µg/mL.

As for `CN(C)C(=N)N=C(N)N` [Metformin], in [5], the activity at 1 µg/mL is 91%, the activity at 5 µg/mL amounted to 96%, the activity at 10 µg/mL was 78% and the activity at 50 µg/mL turned out to be 78%. Besides, the activity at 50 µg/mL in the data set on 3T3-L1 adipocytes (Mus musculus, 3T3-L1, read-out: lipogenic index (observed)) was 79%.

Take `COc1ccc2cc3[n+](cc2c1OC)CCc1cc2c(cc1-3)OCO2` [Berberine]: the 50% inhibitory concentration (IC50) is 3.3 µg/mL with PGE2 synthesis (RAW264.7) and 2 to 6 µg/mL with PGE2 synthesis (setting [9]).

Take `O=c1c(O)c(-c2ccc(O)c(O)c2)oc2cc(O)cc(O)c12` [Quercetin]: the “Relative Potency” value in the data set on PGE2 synthesis was “high”.

For the compound `O=c1c(O)c(-c2ccccc2)oc2cc(O)cc(O)c12` [Galangin], the “Relative Potency” value with PGE2 synthesis is reported as “high”.

For `COc1ccc2c(c1)c(CC(=O)O)c(C)n2C(=O)c1ccc(Cl)cc1` [Indomethacin], the “% Stimulation” value in data set [3] is listed as 9%. Also, the “% Inhibition (maximum, IL-6 secretion)” value in [6] was 53* %. Besides, the activation at 5 µg/mL in the data set on 3T3-L1 adipocytes (Mus musculus, 3T3-L1, read-out: increase of nonpolar lipid incorporation relative to the solvent controls) was 33%.

With `O=c1c(O)c(-c2ccc(O)cc2)oc2cc(O)cc(O)c12` [Keampferol], the results for the IC50 in the data set with PGE2 synthesis (RAW264.7) and with PGE2 synthesis (setting [9]) were 4.3 µg/mL (≈ 15 µM) and 2 to 6 µg/mL (≈ 6.99 to 21 µM), respectively.

`O=C(O)c1ccccc1O` [Salicylic acid]: in data set [3], the “Concentration (of maximum stimulation of adiponectin secretion)” value turned out to be 173 µg/mL and the “% Stimulation” value is reported as “failed to induce adiponectin secretion”. Also, the “Concentration (dose providing the maximum inhibition of IL-6 secretion)” value in [6] was determined as 50.0 µg/mL. Besides, the “IL-6 Index (maximum inhibition)” value in [6] ([IL-6Test - IL-6Control]/[IL-6LPS - IL-6Control]) is 0.52*.

For `CC(C)Cc1ccc(C(C)C(=O)O)cc1` (stereo not drawn) [Ibuprofen], in [3], the “Concentration (of maximum stimulation of adiponectin secretion)” value turned out to be 0.625 µg/mL and the “% Stimulation” value is given as 22%. For the same compound, in data set [6], the “% Inhibition (maximum, IL-6 secretion)” value is on record as 54* % and the “Concentration (dose providing the maximum inhibition of IL-6 secretion)” value was 0.625 µg/mL.

For `Oc1cc(O)c2c(c1)OC(c1ccc(O)c(O)c1)C(O)C2` (stereo not drawn) [Catechin], the IC50 with PGE2 synthesis (RAW264.7) and in the data set on PGE2 synthesis (setting [9]) was above 12 µg/mL throughout.

Take `Oc1ccc(C=Cc2cc(O)cc(O)c2)cc1` [Resveratrol]: the 50% inhibitory concentration (IC50) is 5.8 µg/mL (≈ 25.4 µM) with PGE2 synthesis (RAW264.7) and 2 to 6 µg/mL (≈ 8.76 to 26.3 µM) in the data set on PGE2 synthesis (setting [9]).

Regarding `O=c1c(-c2ccc(O)cc2)coc2cc(O)cc(O)c12` [Genistein], in the data set on PGE2 synthesis, the “Relative Potency” value is “high”.

What is called IC50 is the concentration needed to halve the response being measured.
